Experimental data reported in patent US9409892B2, “4-hydroxy-isoquinoline compounds as HIF hydroxylase inhibitors” (FIBROGEN, INC., priority 2012, dated 2016).
Like-named read-outs stand apart in the source and are kept apart here.

Columns and labels:
PHD2 (EGLN1) = PHD2 (EGLN1) (Homo sapiens (Human), UniProt Q9GZT9); test: HIF-PH assay (14CO2 capture), PHD2 enzyme inhibition; assay type: biochemical; settings: Table 1; individual measurement; read-out: IC50 (μM) PHD2
From the text: (§1) Ketoglutaric acid α-[1-^14C]-sodium salt, alpha-ketoglutaric acid sodium salt, and HPLC purified peptide may be obtained from commercial sources, e.g., Perkin-Elmer (Wellesley Mass.), Sigma-Aldrich, and SynPep Corp. (Dublin Calif.), respectively. Peptides for use in the assay may be fragments of HIFα as described above or as disclosed in International Publication WO 2005/118836, incorporated by reference herein. HIF-pH, e.g., PHD1 (EGLN2) or PHD2 (EGLN1), can be expressed in, e.g., insect Hi5 cells, and partially purified, e.g., through a SP ion exchange chromatography column. Enzyme activity is determined by capturing ^14CO2 using an assay described by Kivirikko and Myllyla (1982, Methods Enzymol. 82:245-304). Assay reactions contain 50 mM HEPES (pH 7.4), 100 μM α-ketoglutaric acid sodium salt, 0.30 mCi/mL ketoglutaric acid α-[1-^14C]-sodium salt, 40 μM FeSO4, 1 mM ascorbate, 1541.8 units/mL Catalase, with or without 50 μM peptide substrate and various concentrations of compound of the invention. Reactions are initiated by addition of HIF-PH enzyme.
(§2) The peptide-dependent percent turnover is calculated by subtracting percent turnover in the absence of peptide from percent turnover in the presence of substrate peptide. Percent inhibition and IC50 are calculated using peptide-dependent percent turnover at given inhibitor concentrations. Calculation of IC50 values for each inhibitor is conducted using GraFit software (Erithacus Software Ltd., Surrey UK).
(§3) The PHD2/PHD1 is the ratio of the IC50 of the compound for each enzyme.

PHD1 (EGLN2) = PHD1 (EGLN2) (Homo sapiens (Human), UniProt Q96KS0); test: HIF-PH assay (14CO2 capture), PHD1 enzyme inhibition; assay type: biochemical; settings: for IC50: read-out: IC50 (μM) PHD1
From the text: as §1, §2, §3

[1] = Table 1, individual measurement
[2] = Table 1, ratio of the IC50 of the compound for each enzyme
[3] = Table 2 comparative data, IC50 PHD2/IC50 PHD1

PHD1 (EGLN2), sequence (Q96KS0 whole entry): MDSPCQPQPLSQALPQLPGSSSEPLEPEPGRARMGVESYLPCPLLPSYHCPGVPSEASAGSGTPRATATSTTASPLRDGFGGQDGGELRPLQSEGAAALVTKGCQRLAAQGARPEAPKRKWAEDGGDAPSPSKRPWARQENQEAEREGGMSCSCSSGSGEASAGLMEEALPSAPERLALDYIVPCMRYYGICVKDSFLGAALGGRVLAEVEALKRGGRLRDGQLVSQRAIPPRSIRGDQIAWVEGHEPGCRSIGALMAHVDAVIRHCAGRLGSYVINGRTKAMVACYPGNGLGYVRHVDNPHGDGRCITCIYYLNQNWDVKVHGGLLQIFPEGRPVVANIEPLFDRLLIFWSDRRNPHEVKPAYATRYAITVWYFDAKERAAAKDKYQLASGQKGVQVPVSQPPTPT
PHD2 (EGLN1), sequence (Q9GZT9 whole entry, the tested form may be a part): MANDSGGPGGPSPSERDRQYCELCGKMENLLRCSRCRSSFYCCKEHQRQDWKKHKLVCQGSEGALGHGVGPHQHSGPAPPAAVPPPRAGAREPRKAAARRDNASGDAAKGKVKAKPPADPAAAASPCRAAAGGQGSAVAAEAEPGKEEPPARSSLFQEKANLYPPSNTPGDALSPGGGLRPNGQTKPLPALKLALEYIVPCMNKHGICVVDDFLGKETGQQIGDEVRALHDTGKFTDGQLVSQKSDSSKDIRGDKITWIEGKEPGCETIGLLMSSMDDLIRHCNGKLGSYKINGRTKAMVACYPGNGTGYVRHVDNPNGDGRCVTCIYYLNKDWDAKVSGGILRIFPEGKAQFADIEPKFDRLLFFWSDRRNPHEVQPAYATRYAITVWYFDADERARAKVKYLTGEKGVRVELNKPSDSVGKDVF

| IC50 (PHD2 (EGLN1)) | IC50 (PHD1 (EGLN2); [1]) | PHD2/PHD1 (PHD1 (EGLN2); [2]) | PHD2/PHD1 (PHD1 (EGLN2); [3]) | Compound | PHD2/PHD1 (PHD1 (EGLN2)) | IC50 (PHD1 (EGLN2)) |
| --- | --- | --- | --- | --- | --- | --- |
| 12.2 µM | 0.42 µM | 29 |  | N#Cc1nc(C(=O)NCC(C(=O)O)C2CC2)c(O)c2ccc(Oc3ccccc3)cc12 (centres unmarked) [Compound 166, 3-[(1-Cyano-4-hydroxy-7-phenoxy-isoquinoline-3-carbonyl)-amino]-2-cyclopropyl-propionic acid] |  |  |
| 65.8 µM | 1.86 µM | 35 |  | C[C@H](C(=O)O)[C@@H](C)NC(=O)c1nc(C#N)c2cc(Oc3ccccc3)ccc2c1O [Compound 70, (2S,3R)-3-[(1-Cyano-4-hydroxy-7-phenoxy-isoquinoline-3-carbonyl)-amino]-2-methyl-butyric acid] |  |  |
| 25.1 µM | 4.51 µM | 6 |  | N#Cc1nc(C(=O)N[C@@H](CC(=O)O)c2cccnc2)c(O)c2ccc(Oc3ccccc3)cc12 [Compound 175, 3-(S)-[(1-Cyano-4-hydroxy-7-phenoxy-isoquinoline-3-carbonyl)-amino]-3-pyridin-3-yl-propionic acid] |  |  |
| 13.6 µM | 2.86 µM | 5 |  | CC(C)(CNC(=O)c1nc(C#N)c2cc(Oc3ccccc3)ccc2c1O)CC(=O)O [Compound 89, 4-[(1-Cyano-4-hydroxy-7-phenoxy-isoquinoline-3-carbonyl)-amino]-3,3-dimethyl-butyric acid] |  |  |
| 3.06 µM | 0.48 µM | 6 |  | CCc1ccccc1Oc1ccc2c(O)c(C(=O)NCC(C)(C)C(=O)O)nc(C#N)c2c1 [Compound 62, 3{-[1-Cyano-7-(2-ethyl-phenoxy)-4-hydroxy-isoquinoline-3-carbonyl]-amino}-2,2-dimethyl-propionic acid] |  |  |
| 7 µM | 1.17 µM | 6 |  | O=C(O)CCCNC(=O)c1ncc2cc(Oc3ccccc3)ccc2c1O [Compound 4, 4-[(4-Hydroxy-7-phenoxy-isoquinoline-3-carbonyl)-amino]-butyric acid] |  |  |
| 46.7 µM | 5.5 µM | 8 |  | CC(C)(CNC(=O)c1ncc2cc(Oc3ccccc3)ccc2c1O)C(=O)O [Compound 2, 3-[(4-Hydroxy-7-phenoxy-isoquinoline-3-carbonyl)-amino]-2,2-dimethyl-propionic acid] |  |  |
| 4.95 µM | 0.42 µM | 12 |  | N#Cc1nc(C(=O)NCCCCC(=O)O)c(O)c2ccc(Oc3ccccc3)cc12 [Compound 81, 5-[(1-Cyano-4-hydroxy-7-phenoxy-isoquinoline-3-carbonyl)-amino]-pentanoic acid] |  |  |
| 14.8 µM | 1.41 µM | 11 |  | O=C(O)CCCNC(=O)c1ncc2cc(Sc3ccccc3)ccc2c1O [Compound 115, 4-[(4-Hydroxy-7-phenylsulfanyl-isoquinoline-3-carbonyl)-amino]-butyric acid] |  |  |
| 2.11 µM | 0.34 µM | 6 |  | CC(C)(CCNC(=O)c1nc(C#N)c2cc(Oc3ccccc3)ccc2c1O)C(=O)O [Compound 84, 4-[(1-Cyano-4-hydroxy-7-phenoxy-isoquinoline-3-carbonyl)-amino]-2,2-dimethyl-butyric acid] |  |  |
| 36.7 µM | 1.41 µM | 26 |  | N#Cc1nc(C(=O)NCC[C@H](N)C(=O)O)c(O)c2ccc(Oc3ccccc3)cc12 [Compound 45, (S)-2-Amino-4-(1-cyano-4-hydroxy-7-phenoxyisoquinoline-3-carboxamido)butanoic acid] |  |  |
| 200 µM | 17.4 µM | 12 |  | CC(C)(CNC(=O)c1nc(C#N)c2cc(S(=O)(=O)C3CCCCC3)ccc2c1O)C(=O)O [Compound 160, 3-[(1-Cyano-7-cyclohexanesulfonyl-4-hydroxy-isoquinoline-3-carbonyl)-amino]-2,2-dimethyl-propionic acid] |  |  |
| 200 µM | 21.2 µM | 9 |  | O=C(O)CCCNC(=O)c1ncc2ccc(Oc3ccccc3)cc2c1O [Compound 113, 4-[(4-Hydroxy-6-phenoxy-isoquinoline-3-carbonyl)-amino]-butyric acid] |  |  |
| 2.86 µM | 0.16 µM | 18 |  | N#Cc1nc(C(=O)NCC(O)C(=O)O)c(O)c2ccc(Oc3ccccc3)cc12 (centres unmarked) [Compound 76, 3-[(1-Cyano-4-hydroxy-7-phenoxy-isoquinoline-3-carbonyl)-amino]-2-hydroxy-propionic acid] |  |  |
| 40.8 µM | 5.51 µM | 7 |  | O=C(NCC1(C(=O)O)CCC1)c1ncc2cc(Oc3ccccc3)ccc2c1O [Compound 13, 1-{[(4-Hydroxy-7-phenoxy-isoquinoline-3-carbonyl)-amino]-methyl}-cyclobutanecarboxylic acid] |  |  |
| 88.4 µM | 11.1 µM | 8 |  | CC(C)(CNC(=O)c1nc(-c2ccccc2)c2cc(Oc3ccccc3)ccc2c1O)C(=O)O [Compound 143, 3-[(4-Hydroxy-7-phenoxy-1-phenyl-isoquinoline-3-carbonyl)-amino]-2,2-dimethyl-propionic acid] |  |  |
| 31.7 µM | 6.4 µM | 5 |  | O=C(O)CCNC(=O)c1nc(-c2ccccc2)c2cc(Oc3ccccc3)ccc2c1O [Compound 144, 3-[(4-Hydroxy-7-phenoxy-1-phenyl-isoquinoline-3-carbonyl)-amino]-propionic acid] |  |  |
| 50.1 µM | 5.42 µM | 9 |  | N#Cc1nc(C(=O)N[C@H](CC(=O)O)c2ccccc2)c(O)c2ccc(Oc3ccccc3)cc12 [Compound 48, (R)-3-[(1-Cyano-4-hydroxy-7-phenoxy-isoquinoline-3-carbonyl)-amino]-3-phenyl-propionic acid] |  |  |
| 1.69 µM | 0.11 µM | 15 |  | N#Cc1nc(C(=O)NC[C@H](O)C(=O)O)c(O)c2ccc(Oc3ccccc3)cc12 [Compound 79, 3-[(1-Cyano-4-hydroxy-7-phenoxy-isoquinoline-3-carbonyl)-amino]-2-(S)-hydroxy-propionic acid] |  |  |
| 200 µM | 13.6 µM | 15 |  | CC(C)(CNC(=O)c1c(O)c2ccc(Oc3ccccc3)cc2c(C#N)[n+]1[O-])C(=O)O [Compound 157, 3-(2-Carboxy-2-methylpropylcarbamoyl)-1-cyano-4-hydroxy-7-phenoxyisoquinoline 2-oxide] |  |  |
| 15.6 µM | 1.08 µM | 14 | 14 | O=C(NC[C@H](O)C(=O)O)c1ncc2cc(Oc3ccccc3)ccc2c1O [Compound 3, 2-(S)-Hydroxy-3-[(4-hydroxy-7-phenoxy-isoquinoline-3-carbonyl)-amino]propionic acid] |  |  |
| 192 µM | 8.19 µM | 23 | 23 | CC(C)(CC(=O)O)NC(=O)c1ncc2cc(Oc3ccccc3)ccc2c1O [Compound 6, 3-[(4-Hydroxy-7-phenoxy-isoquinoline-3-carbonyl)-amino]-3-methyl-butyric acid] |  |  |
| 2.1 µM | 0.28 µM | 7.5 |  | CC(=O)N[C@H](CCNC(=O)c1nc(C#N)c2cc(Oc3ccccc3)ccc2c1O)C(=O)O [Compound 51, (R)-2-Acetylamino-4-[(1-cyano-4-hydroxy-7-phenoxy-isoquinoline-3-carbonyl)-amino]-butyric acid] |  |  |
| 3.9 µM | 0.28 µM | 14 |  | Cc1ccc(Oc2ccc3c(O)c(C(=O)NCC(C)(C)C(=O)O)nc(C#N)c3c2)cc1 [Compound 44, 3-[(1-Cyano-4-hydroxy-7-p-tolyloxy-isoquinoline-3-carbonyl)-amino]-2,2-dimethyl-propionic acid] |  |  |
| > 200 µM | 43.6 µM | 5 |  | N#Cc1nc(C(=O)NCCC[C@H](N)C(=O)O)c(O)c2ccc(Oc3ccccc3)cc12.O=C(O)C(F)(F)F [Compound 163, (S)-2-[Amino-5-(1-cyano-4-hydroxy-7-phenoxy-isoquinoline-3-carbonyl)-amino]-pentanoic acid 2,2,2-trifluoroacetic acid (1:1)] |  |  |
| 29.3 µM | 2.57 µM | 11 |  | CC(C)(CNC(=O)c1nc(C#N)c2cc(CCc3ccccc3)ccc2c1O)C(=O)O [Compound 122, 3-[(1-Cyano-4-hydroxy-7-phenethyl-isoquinoline-3-carbonyl)-amino]-2,2-dimethyl-propionic acid] |  |  |
| 4.2 µM | 0.53 µM | 8 |  | CC(C)(CNC(=O)c1nc(C#N)c2cc(Oc3cc(F)ccc3Cl)ccc2c1O)C(=O)O [Compound 31, 3-{[7-(2-Chloro-5-fluoro-phenoxy)-1-cyano-4-hydroxy-isoquinoline-3-carbonyl]-amino}-2,2-dimethyl-propionic acid] |  |  |

| Compound | IC50 (PHD2 (EGLN1)) | IC50 (PHD1 (EGLN2); [1]) | PHD2/PHD1 (PHD1 (EGLN2); [2]) | PHD2/PHD1 (PHD1 (EGLN2); [3]) | PHD2/PHD1 (PHD1 (EGLN2)) | IC50 (PHD1 (EGLN2)) |
| --- | --- | --- | --- | --- | --- | --- |
| CC(C)C(CC(=O)O)NC(=O)c1nc(C#N)c2cc(Oc3ccccc3)ccc2c1O (centres unmarked) [Compound 61, 3-[(1-Cyano-4-hydroxy-7-phenoxy-isoquinoline-3-carbonyl)-amino]-4-methyl-pentanoic acid] | > 200 µM |  |  |  | 6 | 33.3 µM |
